Assay results from article PMC12529750 (Emerging Microbes & Infections, 2025).

How the values were obtained:
[1] = tested on: SARS-CoV-2 original virus (SARS-CoV-2/human/Denmark/DK-AHH1/2020); experiment: microbe, parasite or virus in culture; format: cell-based
[2] = tested on: VeroE6 and A549-hACE2 cells
[3] = human, in vivo; cited from earlier work
[4] = Severe acute respiratory syndrome coronavirus 2
[5] = Severe acute respiratory syndrome coronavirus 2, Vero C1008

Row | SMILES | EC50 [1, 4] | EC50 [1, 5] | Cytotoxicity (cell viability, CC50) [2] | Cmax [3]
1 | CC(C)(C)[C@H](NC(=O)C(F)(F)F)C(=O)N1C[C@H]2[C@@H]([C@H]1C(=O)N[C@H](C#N)C[C@@H]1CCNC1=O)C2(C)C [NIR, Nirmatrelvir] | 40 nM | 2900 nM |  | 
2 | Cn1cnc(Cn2c(=O)[nH]/c(=N\c3cc4cn(C)nc4cc3Cl)n(Cc3cc(F)c(F)cc3F)c2=O)n1 [ENS, Ensitrelvir] | 100 nM | 420 nM | low | 57 µM
